Measurements: the supplement of paper PMC4862054

Test system: MDA-MB-453
Test: normalised viability (% of control), CellTiter-Blue; higher = more viable cells (about 100 = DMSO control)
Conditions: 3 nM; incubation time: 72 h
How it was run: (§1)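 Plates were quality-checked by Z'-factor and normalised to vehicle (100) and a positive kill control (0). The underlying assay incubated breast cancer cell lines for 72 h on 384-well plates with compound, then added 2.5 µl CellTiter-Blue for 2 h at 37 °C and read at 560/590 nm. The value is normalised viability at a single listed concentration of the series.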

First: CC(C)C[C@@H](C(=O)N[C@H](C(=O)OC1CCCC1)c1ccccc1)[C@H](O)C(=O)NO [Tosedostat]
Second: COCC[n+]1c2c(n(Cc3cnccn3)c1C)C(=O)c1ccccc1C2=O [YM155]
The normalised viability of the first is higher: 119% for the first, 70.7% for the second.

COc1cc2/c(=N/c3ccc(Br)cc3F)nc[nH]c2cc1OCC1CCN(C)CC1 [Vandetanib] was tested, and the normalised viability was 89.6%.

Same assay, conditions: 30 nM; incubation time: 72 h

Compared with CC(C)C[C@@H](C(=O)N[C@H](C(=O)OC1CCCC1)c1ccccc1)[C@H](O)C(=O)NO [Tosedostat], COCC[n+]1c2c(n(Cc3cnccn3)c1C)C(=O)c1ccccc1C2=O [YM155] is lower in normalised viability: 101% for the first, 18.7% for the second.

COc1cc2/c(=N/c3ccc(Br)cc3F)nc[nH]c2cc1OCC1CCN(C)CC1 [Vandetanib] showed a normalised viability of 94.4%.

Same assay, conditions: 100 nM; incubation time: 72 h

Compared with CC(C)C[C@@H](C(=O)N[C@H](C(=O)OC1CCCC1)c1ccccc1)[C@H](O)C(=O)NO [Tosedostat], COCC[n+]1c2c(n(Cc3cnccn3)c1C)C(=O)c1ccccc1C2=O [YM155] is lower in normalised viability: 60.4% for the first, 18.2% for the second.

For COc1cc2/c(=N/c3ccc(Br)cc3F)nc[nH]c2cc1OCC1CCN(C)CC1 [Vandetanib], the normalised viability was 91.4%.

Test system: CAL-51
Test: as above
Conditions: 3 nM; incubation time: 72 h
How it was run: as §1

First: CC(C)C[C@@H](C(=O)N[C@H](C(=O)OC1CCCC1)c1ccccc1)[C@H](O)C(=O)NO [Tosedostat]
Second: COCC[n+]1c2c(n(Cc3cnccn3)c1C)C(=O)c1ccccc1C2=O [YM155]
The normalised viability of the first is higher: 110% for the first, 94.6% for the second.

COc1cc2/c(=N/c3ccc(Br)cc3F)nc[nH]c2cc1OCC1CCN(C)CC1 [Vandetanib] was tested, and the normalised viability was 105%.

Same assay, conditions: 30 nM; incubation time: 72 h

First: CC(C)C[C@@H](C(=O)N[C@H](C(=O)OC1CCCC1)c1ccccc1)[C@H](O)C(=O)NO [Tosedostat]
Second: COCC[n+]1c2c(n(Cc3cnccn3)c1C)C(=O)c1ccccc1C2=O [YM155]
The normalised viability of the first is higher: 111% for the first, 38.9% for the second.

COc1cc2/c(=N/c3ccc(Br)cc3F)nc[nH]c2cc1OCC1CCN(C)CC1 [Vandetanib] showed a normalised viability of 107%.

Same assay, conditions: 100 nM; incubation time: 72 h

Going from CC(C)C[C@@H](C(=O)N[C@H](C(=O)OC1CCCC1)c1ccccc1)[C@H](O)C(=O)NO [Tosedostat] to COCC[n+]1c2c(n(Cc3cnccn3)c1C)C(=O)c1ccccc1C2=O [YM155], the normalised viability falls from 86.5% to 11.5%.

Work on COc1cc2/c(=N/c3ccc(Br)cc3F)nc[nH]c2cc1OCC1CCN(C)CC1 [Vandetanib] yielded a normalised viability of 92.3%.

Test system: MDA-MB-231
Test: as above
Conditions: 10 nM; incubation time: 72 h
How it was run: as §1

Going from CC(C)C[C@@H](C(=O)N[C@H](C(=O)OC1CCCC1)c1ccccc1)[C@H](O)C(=O)NO [Tosedostat] to COCC[n+]1c2c(n(Cc3cnccn3)c1C)C(=O)c1ccccc1C2=O [YM155], the normalised viability falls from 105% to 14.7%.

For COc1cc2/c(=N/c3ccc(Br)cc3F)nc[nH]c2cc1OCC1CCN(C)CC1 [Vandetanib], the normalised viability was 86%.

Same assay, conditions: 1000 nM; incubation time: 72 h

First: CC(C)C[C@@H](C(=O)N[C@H](C(=O)OC1CCCC1)c1ccccc1)[C@H](O)C(=O)NO [Tosedostat]
Second: COCC[n+]1c2c(n(Cc3cnccn3)c1C)C(=O)c1ccccc1C2=O [YM155]
The normalised viability of the first is higher: 53.9% for the first, 1.23% for the second.

Molecule COc1cc2/c(=N/c3ccc(Br)cc3F)nc[nH]c2cc1OCC1CCN(C)CC1 [Vandetanib] has a normalised viability of 82.5%.

Same assay, conditions: 10000 nM; incubation time: 72 h

Compared with CC(C)C[C@@H](C(=O)N[C@H](C(=O)OC1CCCC1)c1ccccc1)[C@H](O)C(=O)NO [Tosedostat], COCC[n+]1c2c(n(Cc3cnccn3)c1C)C(=O)c1ccccc1C2=O [YM155] is lower in normalised viability: 47.1% for the first, 2.19% for the second.

With COc1cc2/c(=N/c3ccc(Br)cc3F)nc[nH]c2cc1OCC1CCN(C)CC1 [Vandetanib] the normalised viability was 8.26%.

Test system: BT-474
Test: as above
Conditions: 10 nM; incubation time: 72 h
How it was run: as §1

Going from CC(C)C[C@@H](C(=O)N[C@H](C(=O)OC1CCCC1)c1ccccc1)[C@H](O)C(=O)NO [Tosedostat] to COCC[n+]1c2c(n(Cc3cnccn3)c1C)C(=O)c1ccccc1C2=O [YM155], the normalised viability falls from 107% to 84.2%.

In the case of COc1cc2/c(=N/c3ccc(Br)cc3F)nc[nH]c2cc1OCC1CCN(C)CC1 [Vandetanib], the normalised viability is reported as 92.7%.

Same assay, conditions: 1000 nM; incubation time: 72 h

First: CC(C)C[C@@H](C(=O)N[C@H](C(=O)OC1CCCC1)c1ccccc1)[C@H](O)C(=O)NO [Tosedostat]
Second: COCC[n+]1c2c(n(Cc3cnccn3)c1C)C(=O)c1ccccc1C2=O [YM155]
The normalised viability of the first is higher: 101% for the first, 0.63% for the second.

COc1cc2/c(=N/c3ccc(Br)cc3F)nc[nH]c2cc1OCC1CCN(C)CC1 [Vandetanib] was tested, and the normalised viability was 78.8%.

Same assay, conditions: 10000 nM; incubation time: 72 h

Going from CC(C)C[C@@H](C(=O)N[C@H](C(=O)OC1CCCC1)c1ccccc1)[C@H](O)C(=O)NO [Tosedostat] to COCC[n+]1c2c(n(Cc3cnccn3)c1C)C(=O)c1ccccc1C2=O [YM155], the normalised viability falls from 105% to 2.25%.

In the case of COc1cc2/c(=N/c3ccc(Br)cc3F)nc[nH]c2cc1OCC1CCN(C)CC1 [Vandetanib], the normalised viability is reported as 8.47%.

Test system: HCC1143
Test: as above
Conditions: 10 nM; incubation time: 72 h
How it was run: as §1

Going from CC(C)C[C@@H](C(=O)N[C@H](C(=O)OC1CCCC1)c1ccccc1)[C@H](O)C(=O)NO [Tosedostat] to COCC[n+]1c2c(n(Cc3cnccn3)c1C)C(=O)c1ccccc1C2=O [YM155], the normalised viability falls from 86.3% to 83.8%.

In the case of COc1cc2/c(=N/c3ccc(Br)cc3F)nc[nH]c2cc1OCC1CCN(C)CC1 [Vandetanib], the normalised viability is reported as 122%.

Same assay, conditions: 1000 nM; incubation time: 72 h

Molecule CC(C)C[C@@H](C(=O)N[C@H](C(=O)OC1CCCC1)c1ccccc1)[C@H](O)C(=O)NO [Tosedostat] has a normalised viability of 63.8%.
